Where “and” joins values, the source holds several entries; their conditions need not be identical. Identical values can stand only once.
Columns and labels:
Homo sapiens [1] = organism: Homo sapiens; experiment: Ratio of lactulose and mannitol in healthy individuals (Group D); format: ADME, organism-based; conditions: in vivo
[2] = Percent recovery of 10 ug/mL compound after administration in cirrhotic patients; format: ADME; conditions: human, in vivo
[3] = Percent of compound in cirrhotic patients of sterile ascitic fluid (Group C); format: ADME; conditions: human
Homo sapiens [4] = experiment: Ratio of percent compound before and after dosing in cirrhotic patients of spontaneous ascitic fluid infection; format: ADME, organism-based; conditions: in vivo
Homo sapiens [5] = organism: Homo sapiens; experiment: Ratio of lactulose and mannitol in cirrhotic patients of sterile ascitic fluid (Group C); format: ADME, organism-based; conditions: in vivo
[6] = Percent of compound in cirrhotic patients of spontaneous ascitic fluid infection before dosing with normal antibiotics; format: ADME; conditions: human, in vivo
[7] = Percent of compound in cirrhotic patients of spontaneous ascitic fluid infection before dosing with normal antibiotics and lactose; format: ADME; conditions: human, in vivo
[8] = Percent of compound in healthy individuals (Group D); format: ADME; conditions: human
[9] = Percent of compound in cirrhotic patients of spontaneous ascitic fluid infection after dosing with normal antibiotics; format: ADME; conditions: human, in vivo
[10] = Percent of compound in cirrhotic patients of spontaneous ascitic fluid infection (Group A and B); format: ADME; conditions: human
[11] = Percent recovery of 100 ug/mL compound after administration in cirrhotic patients; format: ADME; conditions: human, in vivo
[12] = Percent of compound in cirrhotic patients of spontaneous ascitic fluid infection after dosing with normal antibiotics and lactose; format: ADME; conditions: human, in vivo
Homo sapiens [13] = experiment: Ratio of percent compound before dosing in cirrhotic patients of spontaneous ascitic fluid infection; format: ADME, organism-based; conditions: in vivo
Homo sapiens [14] = organism: Homo sapiens; experiment: Ratio of lactulose and mannitol in cirrhotic patients of spontaneous ascitic fluid infection (Group A and B); format: ADME, organism-based; conditions: in vivo
Homo sapiens [15] = experiment: Ratio of percent compound after dosing in cirrhotic patients of spontaneous ascitic fluid infection; format: ADME, organism-based; conditions: in vivo
[16] = Percent recovery of 500 ug/mL compound after administration in cirrhotic patients; format: ADME; conditions: human, in vivo

| SMILES | Ratio (Homo sapiens [1]) | Recovery [2] [%] | Activity [3] [%] | Ratio (Homo sapiens [4]) | Ratio (Homo sapiens [5]) | Activity [6] [%] | Activity [7] [%] | Activity [8] [%] | Activity [9] [%] | Activity [10] [%] | Recovery [11] [%] | Activity [12] [%] | Ratio (Homo sapiens [13]) | Ratio (Homo sapiens [14]) | Ratio (Homo sapiens [15]) | Recovery [16] [%] |
| --- | --- | --- | --- | --- | --- | --- | --- | --- | --- | --- | --- | --- | --- | --- | --- | --- |
| OC[C@H]1O[C@@H](O[C@@H]2[C@@H](CO)O[C@](O)(CO)[C@H]2O)[C@H](O)[C@@H](O)[C@H]1O [LACTULOSE] | 0.0209 | 93.1 | 0.00476 | 0.1009 | 0.0715 | 0.007 | 0.0071 | 0.00177 | 0.006 | 0.00719 | 93.7 | 0.0044 | 0.1009 | 0.1003 | 0.0814 and 0.0572 | 97 |
| OC[C@@H](O)[C@@H](O)[C@H](O)[C@H](O)CO [MANNITOL] | 0.0209 | 93.3 | 0.0691 | 0.0985 | 0.0715 | 0.0735 | 0.0733 | 0.0838 | 0.0782 | 0.0741 | 95.2 | 0.0732 | 0.1009 | 0.1003 | 0.0814 and 0.0572 | 97.1 |

From ChEMBL document CHEMBL1148239, “Studies on intestinal permeability of cirrhotic patients by analysis lactulose and mannitol in urine with HPLC/RID/MS” (Bioorg Med Chem Lett, 2004)
